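Results reflect a 48-hour exposure of cells in 96-well plates to compound at five concentrations. Abbreviation: GI50, concentration required for 50% inhibition of growth.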 Activity calls are given as the source filed them. No stated cut-off is given here; in the data, active = GI50 up to about 1.1 µM and inactive = higher.
Key:
Experiment in all cases: NCI tumour cell line growth inhibition, 48 h
A549 = test system: A549
ACHN = test system: ACHN
BT-549 = test system: BT-549
HL-60 = test system: HL-60
HOP-92 = test system: HOP-92
KM12 = test system: KM12
LOX IMVI = test system: LOX IMVI
MDA-N = test system: MDA-N
NCI-H226 = test system: NCI-H226
PC-3 = test system: PC-3
RPMI-8226 = test system: RPMI-8226
RXF 393 = test system: RXF 393
SK-MEL-28 = test system: SK-MEL-28
SK-MEL-2 = test system: SK-MEL-2
SNB-75 = test system: SNB-75
SW-620 = test system: SW-620
T47D = test system: T47D
U-251 = test system: U-251
UACC-62 = test system: UACC-62
KM-20L2 = test system: KM-20L2

| Structure (SMILES) | GI50 (A549) | GI50 (ACHN) | GI50 (BT-549) | GI50 (HL-60) | GI50 (HOP-92) | GI50 (KM12) | GI50 (LOX IMVI) | GI50 (MDA-N) | GI50 (NCI-H226) | GI50 (PC-3) | GI50 (RPMI-8226) | GI50 (RXF 393) | GI50 (SK-MEL-28) | GI50 (SK-MEL-2) | GI50 (SNB-75) | GI50 (SW-620) | GI50 (T47D) | GI50 (U-251) | GI50 (UACC-62) | GI50 (KM-20L2) |
| --- | --- | --- | --- | --- | --- | --- | --- | --- | --- | --- | --- | --- | --- | --- | --- | --- | --- | --- | --- | --- |
| CCCCCCc1cc2cc(-c3csc(CC#N)n3)c(=O)oc2cc1O | > 100 µM (inactive) | 21.9 µM (inactive) | 6.17 µM (inactive) | > 44.3 µM (inactive) | 7.48 µM (inactive) | 22.5 µM (inactive) | > 100 µM (inactive) | > 100 µM (inactive) | 22.9 µM (inactive) | > 100 µM (inactive) | 32.4 µM (inactive) | > 33.2 µM (inactive) | > 100 µM (inactive) | > 100 µM (inactive) | 32.1 µM (inactive) | 26.2 µM (inactive) | > 100 µM (inactive) | 6.4 µM (inactive) | 14.4 µM (inactive) |  |
| CCOCc1nc2c(OC)c(-c3nc4ccc(N5CCN(C)CC5)cc4[nH]3)cc(OC)c2[nH]1 | 46.9 µM (inactive) | 57.4 µM (inactive) | 66.4 µM (inactive) | 4.39 µM (inactive) | > 100 µM (inactive) | 31.6 µM (inactive) | 21.1 µM (inactive) | 18.6 µM (inactive) | 31.9 µM (inactive) | 63.4 µM (inactive) | 40.1 µM (inactive) | 16 µM (inactive) | 18.6 µM (inactive) | 20.6 µM (inactive) | 28.9 µM (inactive) | 34.7 µM (inactive) | > 100 µM (inactive) | 43.3 µM (inactive) | 19.6 µM (inactive) |  |
| CCOC(=O)CC(C)C1(C(=O)OCC)CCCCC1=O (configuration not stated) | > 100 µM (inactive) | > 100 µM (inactive) |  | > 100 µM (inactive) |  | > 100 µM (inactive) | 67.3 µM (inactive) |  | > 100 µM (inactive) |  | 25.5 µM (inactive) | > 100 µM (inactive) | > 100 µM (inactive) | > 100 µM (inactive) | > 100 µM (inactive) |  |  | > 100 µM (inactive) | > 100 µM (inactive) | 98.9 µM (inactive) |
| CCOc1ccccc1/N=C\c1c2ccccc2cc2ccccc12 | 26.4 µM (inactive) | 29 µM (inactive) | 28.2 µM (inactive) | 16 µM (inactive) | 21 µM (inactive) | 15.1 µM (inactive) | 19.1 µM (inactive) | 21.9 µM (inactive) | 46.5 µM (inactive) | 23.3 µM (inactive) | 15.5 µM (inactive) | 15.7 µM (inactive) | 26.2 µM (inactive) | 22.1 µM (inactive) | 19.5 µM (inactive) | 24.5 µM (inactive) | 18.9 µM (inactive) | 20.4 µM (inactive) | 38.5 µM (inactive) |  |
| OC(C1CCCC1=N/N=C1/CCCC1C(O)(C(F)(F)Cl)C(F)(F)Cl)(C(F)(F)Cl)C(F)(F)Cl (configuration not stated) | > 10 µM (inactive) | > 10 µM (inactive) | > 10 µM (inactive) | > 10 µM (inactive) | > 10 µM (inactive) | > 10 µM (inactive) | > 10 µM (inactive) | > 10 µM (inactive) | > 10 µM (inactive) | > 10 µM (inactive) | > 10 µM (inactive) | > 10 µM (inactive) | > 10 µM (inactive) | > 10 µM (inactive) | > 10 µM (inactive) | > 10 µM (inactive) | > 10 µM (inactive) | > 10 µM (inactive) | > 10 µM (inactive) |  |
| O=C(NCCCN1CCN(CCCNC(=O)c2cc(-c3ccccc3)nc3ccccc23)CC1)c1cc(-c2ccccc2)nc2ccccc12 | 20.6 µM (inactive) | 15.4 µM (inactive) | 17.6 µM (inactive) | > 32.7 µM (inactive) | 5.6 µM (inactive) | 26.3 µM (inactive) | 2.86 µM (inactive) | 5.64 µM (inactive) | 27.7 µM (inactive) | 9.62 µM (inactive) | 7.8 µM (inactive) | > 30.9 µM (inactive) | 2.05 µM (inactive) | 16.3 µM (inactive) | > 38.1 µM (inactive) | 9.71 µM (inactive) | 8.99 µM (inactive) | 12.5 µM (inactive) | 15.9 µM (inactive) |  |
| CCOC(=O)C1=C(C)N(c2ccc(C)cc2)C2=C(C(=O)N(c3ccccc3)C2c2ccccc2)C1c1ccccc1 (configuration not stated) | 10.7 µM (inactive) | 16.6 µM (inactive) |  | > 25 µM (inactive) |  |  | > 25 µM (inactive) |  | > 25 µM (inactive) |  | 14 µM (inactive) | 0.558 µM (active) | > 25 µM (inactive) | > 25 µM (inactive) | 1.51 µM (inactive) | > 25 µM (inactive) |  | > 25 µM (inactive) | 17.2 µM (inactive) | > 25 µM (inactive) |
| CCOC(=O)Cn1nnc2ccc(Nc3nc4ccccc4nc3-c3ccccc3)cc21 | > 100 µM (inactive) | > 100 µM (inactive) | > 100 µM (inactive) | > 100 µM (inactive) | > 100 µM (inactive) | > 100 µM (inactive) | > 100 µM (inactive) | > 100 µM (inactive) | > 100 µM (inactive) | > 100 µM (inactive) | > 100 µM (inactive) | > 100 µM (inactive) | > 100 µM (inactive) | > 100 µM (inactive) | 30.8 µM (inactive) | > 100 µM (inactive) | > 100 µM (inactive) | 71.4 µM (inactive) | > 100 µM (inactive) |  |
